Experimental data: patent publication US20090281025A1, “INHIBITION OF TUMOR GROWTH AND METASTASIS BY ATF2-DERIVED PEPTIDES” (Mount Sinai School Of Medicine of New York University, priority 2004, published 2009)
“Also recorded” adds a separate entry of the source.

Legend:
[1] = test system: SW-1 cells; test: Caspase and PARP cleavage immunoblot in SW-1 cells; format: cell-based, mouse; settings: peptides by transfection, UCN-01 (5 μm) 24 hours
Protocol: (§1) Human melanoma cells LU1205 were transfected with the nucleic acid molecules that encode either ATF2^51-100 peptide or ATF2^51-60 peptide. Twenty-four hours after transfection, cells were treated with of UCN-01 (5 μm) for 24 hours. Immunoblotting analysis was performed using caspase 9 and PARP antibodies, and β-actin was used as a loading control (FIG. 6A). The same experiment was performed in SW-1 cells (FIG. 6B). Stars point to the position of the uncleaved form whereas arrows point to the cleaved products.
(§2) Effect on Apoptosis. Assessed next was the degree of apoptosis in SW1 cells under normal growth (spontaneous) as well as following treatment with chemotherapeutic drugs. Cells were analyzed to detect spontaneous (basal) or induced apoptosis [following treatment with the kinase inhibitor UCN-01 (kindly provided by NCI repository) for 36 hours]. Apoptosis was measured by using FACS (Ivanov et al., Mol. Cell, 2001, 7:517-28) to quantify the percentage of hypodiploid nuclei undergoing DNA fragmentation. Nucleation as a marker of apoptosis was monitored via DAPI staining of cells at indicated time points after their treatment. Caspase activity was monitored by immunoblots using antibodies to caspase 9 (Santa Cruz). PARP cleavage was monitored by corresponding antibodies (PharMingen).

[2] = test system: Human melanoma cells LU1205; test: Caspase and PARP cleavage immunoblot in LU1205 cells; format: cell-based; settings: peptides by transfection, UCN-01 (5 μm) 24 hours
Protocol: as §1, §2

[3] = biological target: T1, JNK-ATF2 association (Homo sapiens, UniProt P45984); test: In vitro association of bead-bound JNK with ATF2; format: binding; settings: 35S-labeled in vitro translated ATF2, synthetic peptide
T1 construct: made in house; host or cells: JNK2 from transfected 293T cells; ATF2 from the TNT-coupled reticulocyte lysate system (Promega)
Protocol: (§3) HA-JNK was transfected into 293T cells and 24 h later JNK was immunoprecipitated and bound to protein G beads. Bead-bound JNK was incubated with in vitro-translated c-Jun or ATF2 in the absence or presence of the wt or mutant form of ATF2^51-60. Following incubation bead-bound JNK was washed (see Example 4) and the amount of bound Jun or ATF2 was assessed via SDS-PAGE analysis subjected to autoradiography (Panel A) and quantification with the aid of a phosphor imager (Panels B and C).
(§4) Effect on JNK/Jun Association. The short peptide's ability to elicit major changes in TRE-dependent transcription and spontaneous apoptosis led to an assessment of possible changes in the JNK-Jun association. Flag JNK2 expressed in 293T cells extracted, immunopurified with anti-Flag antibody bound to Protein G agarose beads were first incubated with 3 mg/ml of BSA in phosphate-buffered saline for 2 h, followed by incubation at 4° C. for 2 h with ^35S-labeled in vitro translated c-Jun or ATF2 (TNT-coupled reticulocyte lysate system, Promega) in the presence of WT or mutant peptide. Bead-bound material was subjected to three washes with 20 mM Tris [pH 7.5], 150 mM NaCl, 1 mM EDTA, 1 mM EGTA, 0.5% NP-40, 1 mM NaVO4, and 1 mM DTT supplemented with protease inhibitors. […] Binding was detected by autoradiography and quantified with the aid of a phosphorimager. […]

[4] = test system: Jun2-Luc; test: Jun2-Luc luciferase reporter assay in SW1 cells; format: cell-based, mouse; settings: SW1 cells expressing peptide, luciferase after 18 hours
Protocol: (§5) SW1 cells constitutively expressing the indicated ATF2 peptides were transfected with either TRE-Luc (FIG. 5A) or with Jun2-Luc (FIG. 5B), and proteins were prepared for analysis of luciferase activity after 18 hours. Analysis was performed in duplicate, and the data reflect three independent experiments. SW1 cells expressing the ATF2 peptides were analyzed to establish the degree of spontaneous (basal) apoptosis as well as apoptosis 24 hours following treatment with the chemotherapeutic drug UCN-01 (FIG. 5C). The data represent triplicate analysis reproduced three times.
(§6) Alteration of ATF2 Transcriptional Activity. Assessed next was whether the short peptide caused any change in transcriptional activity mediated by ATF2 and its heterodimeric partners, using the TRE and Jun2 promoter sequences linked to the Luciferase marker gene. These reporter constructs (0.3 μg) were cotransfected with the respective expression vectors into melanoma cells (5×10^5) using Lipofectamine (Invitrogen). Luciferase activity was measured using the Luciferase assay system (Promega).

[5] = test system: SW1 melanoma cells; test: Apoptosis of SW1 cells by FACS (hypodiploid nuclei); format: cell-based, mouse; settings: SW1 cells expressing peptide, treated with UCN-01; given as control-to-peptide increase
Protocol: as §5, §2

[6] = test system: TRE-Luc; test: TRE-Luc luciferase reporter assay in SW1 cells; format: cell-based, mouse; settings: SW1 cells expressing peptide, luciferase after 18 hours
Protocol: as §5, §6

[7] = biological target: T2, JNK-c-Jun association (Homo sapiens, UniProt P45984); test: In vitro association of bead-bound JNK with c-Jun; format: binding; settings: 35S-labeled in vitro translated c-Jun, synthetic peptide
T2 construct: made in house; host or cells: JNK2 from transfected 293T cells; c-Jun from the TNT-coupled reticulocyte lysate system (Promega)
Protocol: as §3, §4

[8] = test system: SW1 cells; test: Tumor growth of SW1 cells constitutively expressing ATF2 peptides, injected subcutaneously; format: in vivo, mouse; settings: constitutive expression, 18 days
Protocol: SW1 cells, which constitutively express the peptides indicated in FIG. 4A, were analyzed to detect expression of ATF2 peptides at the RNA level using RT-PCR. The indicated MW bands reflect the expected size product. SW1 cells (10^6) were injected subcutaneously into […] mice and tumor growth was monitored for 18 days, at which point tumors were removed and their size carefully assessed (FIG. 4B). Each group included 6 animals and each experiment was performed twice (P<0.01; T-test).
Inhibition of Tumor Growth. To examine the importance of the JNK association domain on ATF2, the possible role of a smaller peptide containing an intact JNK binding site (i.e., amino acids M^51T^52 of ATF2) was examined. To this end, three peptides of differing sizes (amino acids 51-80, 51-70, and 51-60) were compared to ATF2^51-100 peptide in their ability to inhibit tumor growth of SW1 cells in vivo. RT-PCR reactions confirmed the expression of these peptides' transcripts in the SW1 cells (FIG. 4A). […] However, expression of the 50aa peptide in these cells (constitutive expression based on selection of drug-resistant cells) decreased tumor size to 300 mm^3. Strikingly, constitutive expression of each of the 3 shorter peptides also elicited inhibition of melanoma growth that varied from 400-600 mm^3 (FIG. 4B). […] Further evaluation was performed on this 10 amino acid peptide.

Row | Compound | PARP cleavage [1] | activation of caspase 9 (cleavage fragments) [1] | PARP cleavage [2] | activation of caspase 9 (cleavage fragments) [2] | JNK-ATF2 association [3] | Jun2-Luc transcriptional activity [4] | Jun2-Luc transcriptional activity ([4]; listed as 51-60 amino acid peptide) | UCN-01-induced apoptosis [5] | TRE-Luc activity [6] | association between JNK and c-Jun [7] | inhibition of SW1 melanoma growth in vivo [8] | inhibition of SW1 melanoma growth in vivo ([8]; listed as 51-60)
1 | CN[C@@H]1C[C@H]2O[C@@](C)([C@@H]1OC)n1c3ccccc3c3c4c(c5c6ccccc6n2c5c31)C(=O)N[C@@H]4O [UCN-01, reference compound] | PARP cleavage was observed | caused activation of caspase 9 | PARP cleavage was observed | caused activation of caspase 9 |  |  |  |  |  |  |  | 
2 | ATF2^51-60: ATF2 peptide from amino acid residue 51 to 60 (about a 10 amino acid peptide); expressed in cells or synthesized (MTLKFGPARN; UniProt P15336 51-60, looked up, fragment) |  | activation of caspase 9 even prior to treatment with UCN-01 |  | activation of caspase 9 even prior to treatment with UCN-01 | not observed | does not significantly affect Jun2-Luc activity | no longer inhibited and slightly elevated | 20-40% | efficient in increasing TRE-Luc activities; also recorded: increases TRE-Luc activity | increases the in vitro association between JNK and c-Jun in a dose-dependent manner; also recorded: increases Jun association with JNK | inhibits melanoma growth in vivo | efficient inhibition close to that observed with the 50 amino acid peptide
3 | ATF2^51-70: ATF2 peptide from amino acid residue 51 to 70 (about a 20 amino acid peptide) (MTLKFGPARNDSVIVADQTP; UniProt P15336 51-70, looked up, fragment) |  |  |  |  |  |  |  |  |  |  | efficient inhibition close to that observed with the 50 amino acid peptide | 
